Assay results as given in patent publication US11465965B2, “Double-headed protease inhibitor” (UBE INDUSTRIES, LTD., priority 2017, dated 2022).
Counter-ions that a name gives are not always drawn. Like-named read-outs stand apart in the source and are kept apart here.

What was measured:
DIO mouse = test: Anti-obesity effect test using DIO mouse; type: in vivo; conditions: 336 h, DIO mice, vs vehicle group, read-out: Weight loss rate; for inhibition in vivo at 50 mg/kg: oral 50 mg/kg once daily for 2 weeks
How it was run: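 Male C57BL-DIO mice on D-12492 diet, 26 to 28-week old, 5 or 6 per group; compound dosed orally once daily for 2 weeks as 0.5 W/V % methylcellulose suspension, vehicle group on suspension alone. Weight loss rate (%) = (1 − mean final-day weight of treated group / mean final-day weight of vehicle group) × 100.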

HFD-fed mouse = test: Fecal protein concentration-increasing test by single administration using HFD-fed mouse; type: in vivo; conditions: 24 h, HFD-fed mice, vs vehicle group, read-out: Ratio for an increase of protein concentration in feces; for response vs control in vivo at 50 mg/kg: single oral dose 50 mg/kg
Excerpt: (Test Example 3): Fecal Protein Concentration-Increasing Test by Single Administration Using HFD-Fed Mouse
High fat diet-fed (HFD-fed) mice (D-12492 diet, male, ICR, 6 week old) were orally administered with a 0.5 W/V % methylcellulose suspension comprising each test compound (Compound administration group, 4 or 5 mice/group) or a 0.5 W/V % methylcellulose suspension (Compound non-administration group (Vehicle group), 5, 6, or 7 mice/group), and whole feces of the day were collected. Dried feces were dissolved into a 0.5N aqueous sodium hydroxide solution, followed by centrifugation at 3500 rpm. Then each protein concentration in the resulting supernatant was determined (Lowry method), and the ratio for an increase of protein concentration in feces was calculated by the following equation using the protein concentration in feces contained in 1 g of feces (mg/g feces). Ratio for an increase of protein concentration in feces−(average protein concentration in feces of Compound administration group)[…](average protein concentration in feces of Compound non-administration group)

[1] = biological target: T1, Human recombinant enteropeptidase (Homo sapiens, UniProt P98073); test: Human enteropeptidase inhibition test; type: biochemical; conditions: read-out: Inhibition rate (enteropeptidase); for inhibition at 0.001 µM: compound concentration 1 nM
T1 construct: purchased BIO Vision Inc. 7529-50
T1 sequence (P98073 whole entry): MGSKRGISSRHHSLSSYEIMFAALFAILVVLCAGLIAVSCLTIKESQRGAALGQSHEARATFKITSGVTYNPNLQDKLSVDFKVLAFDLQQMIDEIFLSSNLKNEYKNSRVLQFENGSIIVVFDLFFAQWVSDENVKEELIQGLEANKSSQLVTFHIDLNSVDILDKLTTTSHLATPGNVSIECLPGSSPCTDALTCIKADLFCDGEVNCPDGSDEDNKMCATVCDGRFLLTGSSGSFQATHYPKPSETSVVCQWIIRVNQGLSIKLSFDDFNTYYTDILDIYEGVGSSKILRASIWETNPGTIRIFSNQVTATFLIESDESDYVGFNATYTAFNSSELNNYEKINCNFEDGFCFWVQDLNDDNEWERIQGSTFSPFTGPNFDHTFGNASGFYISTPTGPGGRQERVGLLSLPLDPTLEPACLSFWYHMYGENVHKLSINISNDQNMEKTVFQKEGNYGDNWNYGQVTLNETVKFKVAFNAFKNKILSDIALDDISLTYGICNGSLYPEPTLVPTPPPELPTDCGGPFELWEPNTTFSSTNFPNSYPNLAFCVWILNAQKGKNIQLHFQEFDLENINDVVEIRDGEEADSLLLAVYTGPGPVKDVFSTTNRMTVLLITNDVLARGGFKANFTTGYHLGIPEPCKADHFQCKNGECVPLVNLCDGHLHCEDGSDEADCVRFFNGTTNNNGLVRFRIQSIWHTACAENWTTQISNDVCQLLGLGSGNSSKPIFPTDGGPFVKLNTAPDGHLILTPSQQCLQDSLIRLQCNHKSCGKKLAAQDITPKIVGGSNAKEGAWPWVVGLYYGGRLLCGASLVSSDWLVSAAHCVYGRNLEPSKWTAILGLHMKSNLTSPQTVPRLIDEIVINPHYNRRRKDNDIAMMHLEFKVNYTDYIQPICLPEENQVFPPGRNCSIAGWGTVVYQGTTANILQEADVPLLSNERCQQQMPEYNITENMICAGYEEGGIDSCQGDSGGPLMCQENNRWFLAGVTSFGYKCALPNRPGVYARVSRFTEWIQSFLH
How it was run: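 Recombinant human enteropeptidase in 50 mM tricine pH 8.0, 0.01% Tween 20, 10 mM CaCl2 cleaving 1.5 μM 5FAM/CPQ2-quenched peptide substrate (stock solution concentration). Fluorescence (ex 485/em 535 nm) read 20 min after enzyme addition; % inhibition versus no-compound and no-enzyme controls.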

[2] = biological target: T2, Human recombinant trypsin (Homo sapiens, UniProt P07477); test: Human trypsin inhibition test; type: biochemical; conditions: 20 minutes after reaction start, read-out: Inhibition rate (trypsin); for inhibition at 0.001 µM: compound concentration 1 nM; for inhibition at 0.01 µM: compound concentration 10 nM; for inhibition at 0.1 µM: compound concentration 100 nM
T2 construct: purchased Wako Pure Chemical Industries, Ltd. 206-17171
How it was run: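 Trypsin diluted to 10 ng/mL in 0.1 M Tris-HCl pH8.0, 0.15 M NaCl, 10 mM CaCl2, 0.05% Brij35; substrate solution 40 μM Boc-Phe-Ser-Arg-MCA, compounds in 1% DMSO buffer. Fluorescence (ex 355/em 460 nm) read 20 min after enzyme addition; % inhibition versus no-compound and no-enzyme controls.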

[3] = Rat pharmacokinetic (PK) test (plasma concentration after oral administration); conditions: male, SD
Experimental: (§1) Each test compound was suspended in a 0.5 W/V % methylcellulose 400 solution to prepare a suspension, and the resulting suspension was orally administered to a male SD rat of 7 to 8-week old (weight: 180 to 250 g). After 0.25, 0.5, 1, 2, 4, 8, and 24 hour(s) of the administration of each test compound, blood (EDTA-added blood) was collected from jugular vein under isoflurane inhalation anesthesia. […] To the resulting blood plasma was added acetonitrile, a mixed solvent of acetonitrile and water (1:1 (V/V)), or a mixed solvent of acetonitrile and 0.1 M hydrochloric acid (1:1 (V/V)), then the resulting mixture was mixed at 750 rpm for 3 minutes in a shaker, and subjected to centrifugal separation at 3700 rpm for 2 minutes in a centrifuge to remove proteins. The resulting sample was subjected to LC (liquid chromatography)/MS (mass spectrometry) measurement under the following measurement conditions.
(§2) Each compound concentration in blood plasma at each time of blood collection was calculated according to the internal standard method, and, area under the plasma concentration vs. time curve (AUCall (Area Under Curve)) was calculated according to the trapezoidal method.
(§3) The LC and MS systems used in the present test are as follows.
(§4) LC: LC20 or LC30 HPLC system manufactured by Shimadzu Corporation
(§5) Column: Phenomenex Kinetex C18 (50×2.1 mm, 2.6 μm)
Column temperature: 40° C.
(§6) Mobile phase A: aqueous solution with 0.1% formic acid, Mobile phase B: 50% acetonitrile/methanol solution with 0.1% formic acid

in vivo = conditions: male, SD, rat, po, 10 mg/kg
Experimental: as §1, §2, §3, §4, §5
Column temperature: 40° C.
as §6

[4] = 20 minutes after reaction start
[5] = compound concentration 10 nM, 20 minutes after reaction start
[6] = compound concentration 100 nM, 20 minutes after reaction start

| Structure (SMILES) | inhibition at 0.001 µM [1, 4] [%] | inhibition at 0.01 µM [1, 5] [%] | inhibition at 0.1 µM [1, 6] [%] | inhibition at 0.001 µM [2] [%] | inhibition at 0.01 µM [2] [%] | inhibition at 0.1 µM [2] [%] | AUC ([3]; 10 mg/kg) [ng·h/mL] | inhibition in vivo at 50 mg/kg (DIO mouse) [%] | response vs control in vivo at 50 mg/kg (HFD-fed mouse) [%] | also measured |
| --- | --- | --- | --- | --- | --- | --- | --- | --- | --- | --- |
| N=C(N)Nc1ccc(C(=O)Oc2ccc(CNS(=O)(=O)N(CCOCCN([C@@H](CC(=O)O)C(=O)O)S(=O)(=O)NCc3ccc(OC(=O)c4ccc(NC(=N)N)cc4)cc3)[C@@H](CC(=O)O)C(=O)O)cc2)cc1 [1-(b), (2S,2′S)-2,2′-((oxybis(ethane-2,1-diyl))bis((N-(4-((4-guanidinobenzoyl)oxy)benzyl)sulfamoyl)azanediyl))disuccinic acid] | ≥ 50 | ≥ 50 | ≥ 50 | ≥ 50 | ≥ 50 | ≥ 50 |  |  |  | inhibition in vivo at 30 mg/kg (DIO mouse; oral 30 mg/kg once daily for 2 weeks): ≥ 4%; response vs control in vivo at 87 mg/kg (HFD-fed mouse; single oral dose 87 mg/kg): ≥ 130%; AUC ([3]; 100 mg/kg): ≤ 100 ng·h/mL |
| N=C(N)Nc1ccc(C(=O)Oc2ccc(CNS(=O)(=O)N(CCOCCOCCOCCOCCN([C@@H](CC(=O)O)C(=O)O)S(=O)(=O)NCc3ccc(OC(=O)c4ccc(NC(=N)N)cc4)cc3)[C@@H](CC(=O)O)C(=O)O)cc2)cc1 [4-(b), (2S,19S)-3,18-bis(N-(4-((4-guanidinobenzoyl)oxy)benzyl)sulfamoyl)-6,9,12,15-tetraoxa-3,18-diazaicosane-1,2,19,20-tetracarboxylic acid trifluoroacetate] |  | ≥ 50 | ≥ 50 |  | ≥ 50 | ≥ 50 | ≤ 100 |  |  | inhibition in vivo at 86 mg/kg (DIO mouse; oral 86 mg/kg once daily for 2 weeks): ≥ 4%; response vs control in vivo at 100 mg/kg (HFD-fed mouse; single oral dose 100 mg/kg): ≥ 130% |
| N=C(N)Nc1ccc(C(=O)Oc2ccc(CNS(=O)(=O)N(CCCN([C@@H](CC(=O)O)C(=O)O)S(=O)(=O)NCc3ccc(OC(=O)c4ccc(NC(=N)N)cc4)cc3)[C@@H](CC(=O)O)C(=O)O)cc2)cc1 [7-(b), (2S,2′)-2,2′-propane-1,3-diylbis((N-(4-((4-guanidinobenzoyl)oxy)benzyl)sulfamoyl)azanediyl)disuccinic acid] | ≥ 50 | ≥ 50 | ≥ 50 | ≥ 50 | ≥ 50 | ≥ 50 | ≤ 100 |  |  | inhibition in vivo at 100 mg/kg (DIO mouse; oral 100 mg/kg once daily for 2 weeks): ≥ 4%; response vs control in vivo at 30 mg/kg (HFD-fed mouse; single oral dose 30 mg/kg): ≥ 130% |
| N=C(N)Nc1ccc(C(=O)Oc2ccc(COC(=O)N(CCOCCOCCOCCOCCN(C(=O)OCc3ccc(OC(=O)c4ccc(NC(=N)N)cc4)cc3)C(CC(=O)O)C(=O)O)C(CC(=O)O)C(=O)O)cc2)cc1 (stereo not shown) [10-(b), 3,18-bis(((4-((4-guanidinobenzoyl)oxy)benzyl)oxy)carbonyl)-6,9,12,15-tetraoxa-3,18-diazaicosane-1,2,19,20-tetracarboxylic acid trifluoroacetate] |  | ≥ 50 | ≥ 50 |  | ≥ 50 | ≥ 50 |  |  |  | inhibition in vivo at 87 mg/kg (DIO mouse; oral 87 mg/kg once daily for 2 weeks): ≥ 4%; response vs control in vivo at 79 mg/kg (HFD-fed mouse; single oral dose 79 mg/kg): ≥ 130%; AUC ([3]; 8 mg/kg): ≤ 100 ng·h/mL |
| N=C(N)Nc1ccc(C(=O)Oc2ccc(COC(=O)N(Cc3cccc(C(=O)NCCOCCOCCOCCOCCNC(=O)c4cccc(CN(C(=O)OCc5ccc(OC(=O)c6ccc(NC(=N)N)cc6)cc5)[C@@H](CC(=O)O)C(=O)O)c4)c3)[C@@H](CC(=O)O)C(=O)O)cc2)cc1 [17-(b), (2S,2′S)-2,2′-(((5,8,11,14-tetraoxa-2,17-diazaoctadecane-1,18-dioyl)bis(3,1-phenylene))bis(methylene))bis((((4-((4-guanidinobenzoyloxy)benzyloxycarbonyl)azanediyl))disuccinic acid trifluoroacetate] |  |  |  | ≥ 50 | ≥ 50 | ≥ 50 |  |  |  | inhibition in vivo at 88 mg/kg (DIO mouse; oral 88 mg/kg once daily for 2 weeks): ≥ 4%; response vs control in vivo at 91 mg/kg (HFD-fed mouse; single oral dose 91 mg/kg): ≥ 130%; inhibition at 0.01 µM [1]: ≥ 50%; inhibition at 0.1 µM [1]: ≥ 50%; AUC ([3]; 9 mg/kg): ≤ 100 ng·h/mL |
| Cl.N=C(N)Nc1ccc2c(c1)CCCOc1c(cccc1C(=O)N(CCOCCOCCN(C(=O)c1cccc3c1OCCCc1cc(NC(=N)N)ccc1C(=O)O3)[C@@H](CC(=O)O)C(=O)O)[C@@H](CC(=O)O)C(=O)O)OC2=O [20-(c), (2S,13S)-3,12-bis(10-guanidino-13-oxo-6,7,8,13-tetrahydrodibenzo[b,f][1,4]dioxecin-4-carbonyl)-6,9-dioxa-3,12-diazatetradecane-1,2,13,14-tetracarboxylic acid hydrochloride] |  |  |  |  |  |  |  |  |  | AUC (in vivo): ≤ 100 ng·h/mL |
| N=C(N)Nc1ccc2c(c1)CCCOc1c(cccc1C(=O)N(CCOCCN(C(=O)c1cccc3c1OCCCc1cc(NC(=N)N)ccc1C(=O)O3)[C@@H](CC(=O)O)C(=O)O)[C@@H](CC(=O)O)C(=O)O)OC2=O [26-(b), (2S,2′S)-2,2′-((oxybis(ethane-2,1-diyl))bis((10-guanidino-13-oxo-6,7,8,13-tetrahydrodibenzo[b,f][1,4]dioxecin-4-carbonyl)azanediyl))disuccinic acid] | ≥ 50 | ≥ 50 |  | ≥ 50 | ≥ 50 |  | ≤ 100 | ≥ 4 | ≥ 130 |  |
| N=C(N)Nc1ccc2c(c1)CCCOc1c(cccc1C(=O)N(CCOCCOCCOCCN(C(=O)c1cccc3c1OCCCc1cc(NC(=N)N)ccc1C(=O)O3)[C@@H](CC(=O)O)C(=O)O)[C@@H](CC(=O)O)C(=O)O)OC2=O [27-(b), (2S,165)-3,15-bis(10-guanidino-13-oxo-6,7,8,13-tetrahydrodibenzo[b,f][1,4]dioxecin-4-carbonyl)-6,9,12-trioxa-3,15-diazaheptadecane-1,2,16,17-tetracarboxylic acid] | ≥ 50 | ≥ 50 | ≥ 50 |  | ≥ 50 | ≥ 50 |  | ≥ 4 | ≥ 130 |  |
| N=C(N)Nc1ccc2c(c1)CCCOc1c(cccc1C(=O)N(Cc1cccc(-c3cccc(CN(C(=O)c4cccc5c4OCCCc4cc(NC(=N)N)ccc4C(=O)O5)[C@@H](CC(=O)O)C(=O)O)c3)c1)[C@@H](CC(=O)O)C(=O)O)OC2=O [28-(c)] | ≥ 50 | ≥ 50 | ≥ 50 |  | ≥ 50 | ≥ 50 | ≤ 100 | ≥ 4 | ≥ 130 |  |
| Cl.N=C(N)Nc1ccc2c(c1)CCCOc1c(cccc1C(=O)N(Cc1cc(OCCOCCOc3cc(CN(C(=O)c4cccc5c4OCCCc4cc(NC(=N)N)ccc4C(=O)O5)[C@@H](CC(=O)O)C(=O)O)cc(C(=O)O)c3)cc(C(=O)O)c1)[C@@H](CC(=O)O)C(=O)O)OC2=O [29-(c), (2S,2′S)-2,2′-(((((oxybis(ethane-2,1-diyl))bis(oxy))bis(3-carboxy-5,1-phenylene))bis(methylene))bis((10-guanidino-13-oxo-6,7,8,13-tetrahydrodibenzo[b,f][1,4]dioxecin-4-carbonyl)azanediyl))disuccinic acid hydrochloride] | ≥ 50 | ≥ 50 | ≥ 50 |  |  | ≥ 50 | ≤ 100 | ≥ 4 | ≥ 130 |  |
